# Test: MALDI-TOF screening of Ni^2+ dependent hydrolysis in a combinatorial peptide library
# Assay type: physicochemical
# Settings: CH3CO-Gly-Ala-Ser-X-His-Z-Lys-Phe-Leu-NH2 library, Ni^2+ 2 mM, pH 8.2, 10 mM Tris, score=24/tm
# How it was run: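 The screen used 1 mM peptide mixtures in 10 mM Tris, pH 8.2, with 2 mM Ni2+ at two temperatures, 37 °C and 45 °C. Product appearance and substrate decline were monitored visually by MALDI-TOF over 8 h. Scores for X and Z were then summed by row and column to rank substitutions.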
Substance,hydrolysis score from MALDI-TOF screening (37° C.),hydrolysis score from MALDI-TOF screening (45° C.)
Ac-GASTHQKFL-NH2 [STHQ],0 (a score of 0 if no trace of the product of hydrolysis was seen after 8 hours of incubation),0 (a score of 0 if no trace of the product of hydrolysis was seen after 8 hours of incubation)
Ac-GASTHRKFL-NH2 [STHR],3 (a score of 3 for detection at 8 hours),6 (a score of 6 for detection at 4 hours)
Ac-GASTHSKFL-NH2 [STHS],0 (a score of 0 if no trace of the product of hydrolysis was seen after 8 hours of incubation),0 (a score of 0 if no trace of the product of hydrolysis was seen after 8 hours of incubation)
Ac-GASTHTKFL-NH2 [STHT],0 (a score of 0 if no trace of the product of hydrolysis was seen after 8 hours of incubation),0 (a score of 0 if no trace of the product of hydrolysis was seen after 8 hours of incubation)
Ac-GASTHVKFL-NH2 [STHV],0 (a score of 0 if no trace of the product of hydrolysis was seen after 8 hours of incubation),6 (a score of 6 for detection at 4 hours)
Ac-GASTHWKFL-NH2 [STHW],4 (a score of 4 for detection at 6 hours),6 (a score of 6 for detection at 4 hours)
Ac-GASTHYKFL-NH2 [STHY],0 (a score of 0 if no trace of the product of hydrolysis was seen after 8 hours of incubation),3 (a score of 3 for detection at 8 hours)
Ac-GASVHAKFL-NH2 [SVHA],0 (a score of 0 if no trace of the product of hydrolysis was seen after 8 hours of incubation),0 (a score of 0 if no trace of the product of hydrolysis was seen after 8 hours of incubation)
Ac-GASVHDKFL-NH2 [SVHD],0 (a score of 0 if no trace of the product of hydrolysis was seen after 8 hours of incubation),0 (a score of 0 if no trace of the product of hydrolysis was seen after 8 hours of incubation)
Ac-GASVHEKFL-NH2 [SVHE],0 (a score of 0 if no trace of the product of hydrolysis was seen after 8 hours of incubation),0 (a score of 0 if no trace of the product of hydrolysis was seen after 8 hours of incubation)
Ac-GASVHFKFL-NH2 [SVHF],0 (a score of 0 if no trace of the product of hydrolysis was seen after 8 hours of incubation),3 (a score of 3 for detection at 8 hours)
Ac-GASVHGKFL-NH2 [SVHG],0 (a score of 0 if no trace of the product of hydrolysis was seen after 8 hours of incubation),0 (a score of 0 if no trace of the product of hydrolysis was seen after 8 hours of incubation)
Ac-GASVHHKFL-NH2 [SVHH],3 (a score of 3 for detection at 8 hours),3 (a score of 3 for detection at 8 hours)
Ac-GASVHIKFL-NH2 [SVHI],3 (a score of 3 for detection at 8 hours),3 (a score of 3 for detection at 8 hours)
Ac-GASVHKKFL-NH2 [SVHK],3 (a score of 3 for detection at 8 hours),4 (a score of 4 for detection at 6 hours)
Ac-GASVHLKFL-NH2 [SVHL],3 (a score of 3 for detection at 8 hours),3 (a score of 3 for detection at 8 hours)

Substance,hydrolysis score from MALDI-TOF screening (37° C.),hydrolysis score from MALDI-TOF screening (45° C.)
Ac-GASVHMKFL-NH2 [SVHM],0 (a score of 0 if no trace of the product of hydrolysis was seen after 8 hours of incubation),0 (a score of 0 if no trace of the product of hydrolysis was seen after 8 hours of incubation)
Ac-GASVHNKFL-NH2 [SVHN],0 (a score of 0 if no trace of the product of hydrolysis was seen after 8 hours of incubation),0 (a score of 0 if no trace of the product of hydrolysis was seen after 8 hours of incubation)
Ac-GASVHPKFL-NH2 [SVHP],0 (a score of 0 if no trace of the product of hydrolysis was seen after 8 hours of incubation),0 (a score of 0 if no trace of the product of hydrolysis was seen after 8 hours of incubation)
Ac-GASVHQKFL-NH2 [SVHQ],0 (a score of 0 if no trace of the product of hydrolysis was seen after 8 hours of incubation),0 (a score of 0 if no trace of the product of hydrolysis was seen after 8 hours of incubation)
Ac-GASVHRKFL-NH2 [SVHR],3 (a score of 3 for detection at 8 hours),3 (a score of 3 for detection at 8 hours)
Ac-GASVHSKFL-NH2 [SVHS],0 (a score of 0 if no trace of the product of hydrolysis was seen after 8 hours of incubation),0 (a score of 0 if no trace of the product of hydrolysis was seen after 8 hours of incubation)
Ac-GASVHTKFL-NH2 [SVHT],0 (a score of 0 if no trace of the product of hydrolysis was seen after 8 hours of incubation),0 (a score of 0 if no trace of the product of hydrolysis was seen after 8 hours of incubation)
Ac-GASVHVKFL-NH2 [SVHV],0 (a score of 0 if no trace of the product of hydrolysis was seen after 8 hours of incubation),3 (a score of 3 for detection at 8 hours)
Ac-GASVHWKFL-NH2 [SVHW],4 (a score of 4 for detection at 6 hours),4 (a score of 4 for detection at 6 hours)
Ac-GASVHYKFL-NH2 [SVHY],0 (a score of 0 if no trace of the product of hydrolysis was seen after 8 hours of incubation),3 (a score of 3 for detection at 8 hours)
Ac-GASWHAKFL-NH2 [SWHA],0 (a score of 0 if no trace of the product of hydrolysis was seen after 8 hours of incubation),3 (a score of 3 for detection at 8 hours)
Ac-GASWHDKFL-NH2 [SWHD],0 (a score of 0 if no trace of the product of hydrolysis was seen after 8 hours of incubation),0 (a score of 0 if no trace of the product of hydrolysis was seen after 8 hours of incubation)
Ac-GASWHEKFL-NH2 [SWHE],0 (a score of 0 if no trace of the product of hydrolysis was seen after 8 hours of incubation),0 (a score of 0 if no trace of the product of hydrolysis was seen after 8 hours of incubation)
Ac-GASWHFKFL-NH2 [SWHF],3 (a score of 3 for detection at 8 hours),4 (a score of 4 for detection at 6 hours)
Ac-GASWHGKFL-NH2 [SWHG],0 (a score of 0 if no trace of the product of hydrolysis was seen after 8 hours of incubation),3 (a score of 3 for detection at 8 hours)

# From patent publication US8969516B2, “Method of hydrolysis of peptide bond” (priority 2006, dated 2015)
